Experimental data published in patent US7816522B2, “Triazolone derivatives” (Eisai Co., Ltd., priority 2006, dated 2010).
Counter-ions that a name gives are not always drawn.

These compounds were tested against T1, human clotting factor VIIa (Homo sapiens, UniProt P08709) (assay: Inhibitory activity against clotting factor VIIa (chromogenic substrate Spectrozyme FVIIa, TF/Factor VIIa enzyme solution)). Conditions: human Factor VIIa 5 nmol/L with human TF 10 nmol/L, room temperature 40 minutes, 405 nm.
T1 construct: a human clotting factor VIIa (hereinafter, “Factor VIIa”) purified sample; purchased Enzyme Research Laboratories HFVIIa
T1 sequence (P08709 213-466 limits assumed): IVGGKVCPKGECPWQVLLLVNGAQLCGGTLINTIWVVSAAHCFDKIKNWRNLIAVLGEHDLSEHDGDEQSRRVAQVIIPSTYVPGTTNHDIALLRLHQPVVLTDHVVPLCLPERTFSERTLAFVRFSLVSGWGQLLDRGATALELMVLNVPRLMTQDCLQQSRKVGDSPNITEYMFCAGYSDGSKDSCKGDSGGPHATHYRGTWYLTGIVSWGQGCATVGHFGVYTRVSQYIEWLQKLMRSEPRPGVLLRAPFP
T1 sequence (P08709 61-212 limits assumed): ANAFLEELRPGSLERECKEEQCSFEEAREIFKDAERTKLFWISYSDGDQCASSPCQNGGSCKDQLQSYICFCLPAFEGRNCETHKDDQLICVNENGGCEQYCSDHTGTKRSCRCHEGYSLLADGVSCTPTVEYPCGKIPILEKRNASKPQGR
T1 sequence (P13726 33-295 partner): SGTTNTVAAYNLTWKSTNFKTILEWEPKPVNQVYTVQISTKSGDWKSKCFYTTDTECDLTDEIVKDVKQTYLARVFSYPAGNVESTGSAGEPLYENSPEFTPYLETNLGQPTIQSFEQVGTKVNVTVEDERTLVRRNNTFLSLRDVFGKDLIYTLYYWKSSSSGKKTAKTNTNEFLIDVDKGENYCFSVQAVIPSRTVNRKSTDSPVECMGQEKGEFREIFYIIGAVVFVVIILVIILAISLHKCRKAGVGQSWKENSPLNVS
Type: biochemical
Experimental: [Inhibitory Activity Against Clotting Factor VIIa]
Dimethylsulfoxide (DMSO) solutions were prepared with compounds of the invention at concentration of 10 mmol/L (10 mmol/L compound solutions).
One packet of tris-hydroxymethylaminomethane-preset (hereinafter referred to as “Tris preset”) (Product of Sigma Corp., Catalog No. T8293), 8.8 g of sodium chloride (NaCl) and 1 g of bovine serum albumin (hereinafter abbreviated as “BSA”) were dissolved in 1 L of water to prepare a Tris-BSA buffer (100 mmol/L Tris, 0.15 mol/L NaCl, 0.1% BSA, pH 7.4).
This Tris-BSA buffer (180 μL) was added to the aforementioned 10 mmol/L compound solution (20 μL). A 10-fold dilution series was prepared for this mixture using the aforementioned Tris-BSA buffer, and solutions with the compound at concentrations of 1.0 mmol/L, 100, 10, 1, 0.1, 0.01 and 0.001 μmol/L were prepared (1.0 mmol-0.001 μmol/L compound solutions). As a control, a solution was prepared by 10-fold dilution of DMSO with the Tris-BSA buffer (hereinafter referred to as “control 10% solution”).
After dissolving one packet of Tris preset, NaCl (8.8 g) and BSA (1 g) in water (about 900 mL), there were added 1 mol/L aqueous calcium chloride (CaCl2) (15 mL) and 1 mg/mL aqueous cephalin (30 mL), and the total volume was brought to 1 L by adding water. To this solution there was added a human tissue factor (hereinafter, “TF”) sample (product of Calbiochem, Catalog No. 612151) (450 μg) to a TF sample concentration of 10 nmol/L, and then a human clotting factor VIIa (hereinafter, “Factor VIIa”) purified sample (product of Enzyme Research Laboratories, Catalog No. HFVIIa) (250 μg) was added to a Factor VIIa purified sample concentration of 5 nmol/L, to prepare an enzyme solution (100 mmol/L Tris-HCl, 0.15 mol/L NaCl, 15 mmol/L CaCl2, 30 μg/mL cephalin, 1 mg/mL BSA, 10 nmol/L TF, 5 nmol/L Factor VIIa).
To 110 μL of this enzyme solution there was added 15 μL of each of the 1.0 mmol-0.001 μmol/L compound solutions, and then 25 μL of a 1.0 mmol/L synthetic chromogenic substrate solution (Spectrozyme FVIIa, product of American Diagnostica, Catalog No. 217L) was added and the mixture was allowed to stand at room temperature for 40 minutes. Next, the amount of 4-nitroanilide released into the solution was quantitated by spectrophotometry (405 nm).
A control measurement was conducted in the same manner, using the control 10% solution instead of the compound solution.
This measurement yielded the enzyme reaction inhibition in the presence of 100 μmol/L to 0.1 nmol/L of each compound of the invention.
The enzyme reaction inhibition at each compound concentration was subjected to non-linear regression analysis, and the IC50 value for inhibitory activity of each compound against clotting factor VIIa was calculated.

| Structure (SMILES) | IC50 [nM] |
| --- | --- |
| COCCOc1cc(OC)cc(C(Nc2ccc(C(=N)N)cc2)c2nn(-c3ncccn3)c(=O)[nH]2)c1 (racemic) [Example 6, (R) and (S)-4-({[3-methoxy-5-(2-methoxyethoxy)phenyl]-(5-oxo-1-pyrimidin-2-yl-4,5-dihydro-1H-[1,2,4]triazol-3-yl)methyl}amino)benzamidine acetate] | 10.3 |
| COCCOc1cc(OC)cc(C(Nc2ccc(C(=N)N)cc2)c2nn(-c3cccnn3)c(=O)[nH]2)c1 (racemic) [Example 7, (R) and (S)-4-({[3-methoxy-5-(2-methoxyethoxy)phenyl]-(5-oxo-1-pyridazin-3-yl-4,5-dihydro-1H-[1,2,4]triazol-3-yl)methyl}amino)benzamidine acetate] | 9.9 |
| COc1cc(OCCN(C)C)cc(C(Nc2ccc(C(=N)N)cc2)c2nn(-c3ncccn3)c(=O)[nH]2)c1 (racemic) [Example 8, (R) and (S)-4-({[3-(2-dimethylaminoethoxy)-5-methoxyphenyl]-(5-oxo-1-pyrimidin-2-yl-4,5-dihydro-1H-[1,2,4]triazol-3-yl)methyl}amino)benzamidine diacetate] | 22.6 |
| COc1cc(OC)cc(C(Nc2ccc(C(=N)N)cc2)c2nn(-c3ncccn3)c(=O)[nH]2)c1 (racemic) [Example 9, (R) and (S)-4-{[(3,5-dimethoxyphenyl)-(5-oxo-1-pyrimidin-2-yl-4,5-dihydro-1H-[1,2,4]triazol-3-yl)methyl]amino}benzamidine acetate] | 9.8 |
| COCc1cc(OC)cc(C(Nc2ccc(C(=N)N)cc2)c2nn(-c3ncccn3)c(=O)[nH]2)c1 (racemic) [Example 10, (R) and (S)-4-{[(3-methoxy-5-methoxymethylphenyl)-(5-oxo-1-pyrimidin-2-yl-4,5-dihydro-1H-[1,2,4]triazol-3-yl)methyl]amino}benzamidine acetate] | 21.1 |
| COc1cc(CO)cc(C(Nc2ccc(C(=N)N)cc2)c2nn(-c3ncccn3)c(=O)[nH]2)c1 (racemic) [Example 12, (R) and (S)-4-{[(3-hydroxymethyl-5-methoxyphenyl)-(5-oxo-1-pyrimidin-2-yl-4,5-dihydro-1H-[1,2,4]triazol-3-yl)methyl]amino}benzamidine trifluoroacetate] | 33.8 |
| COc1cc(OCC(=O)N(C)C)c(F)c(C(Nc2ccc(C(=N)N)cc2)c2nn(-c3ncccn3)c(=O)[nH]2)c1 (racemic) [Example 15, (R) and (S)-2-{3-[(4-carbamimidoylphenylamino)-(5-oxo-1-pyrimidin-2-yl-4,5-dihydro-1H-[1,2,4]triazol-3-yl)methyl]-2-fluoro-5-methoxyphenoxy}-N,N-dimethylacetamide acetate] | 13.4 |
| COc1cc(C(Nc2ccc(C(=N)N)cc2)c2nn(-c3ncccn3)c(=O)[nH]2)ccc1OCC#N (racemic) [Example 16, (R) and (S)-4-{[(4-cyanomethoxy-3-methoxyphenyl)-(5-oxo-1-pyrimidin-2-yl-4,5-dihydro-1H-[1,2,4]triazol-3-yl)methyl]amino}benzamidine acetate] | 11.5 |
| CCOc1ccc(C(Nc2ccc(C(=N)N)cc2)c2nn(-c3ncccn3)c(=O)[nH]2)cc1OC (racemic) [Example 18, (R) and (S)-4-{[(4-ethoxy-3-methoxyphenyl)-(5-oxo-1-pyrimidin-2-yl-4,5-dihydro-1H-[1,2,4]triazol-3-yl)methyl]amino}benzamidine acetate] | 15.5 |
| COc1cc(C(Nc2ccc(C(=N)N)cc2)c2nn(-c3ncccc3N)c(=O)[nH]2)cc(C)n1 (racemic) [Example 19, (R) and (S)-4-({[1-(3-aminopyridin-2-yl)-5-oxo-4,5-dihydro-1H-[1,2,4]triazol-3-yl]-(2-methoxy-6-methylpyridin-4-yl)methyl}amino)benzamidine acetate] | 12.8 |
| COc1cc(C(Nc2ccc(C(=N)N)cc2)c2nn(-c3ncccn3)c(=O)[nH]2)cc2c1OCCO2 (racemic) [Example 20, (R) and (S)-4-{[(8-methoxy-2,3-dihydro-benzo[1,4]dioxin-6-yl)-(5-oxo-1-pyrimidin-2-yl-4,5-dihydro-1H-[1,2,4]triazol-3-yl)methyl]amino}benzamidine acetate] | 9.7 |
| COc1cc(C(Nc2ccc(C(=N)N)cc2)c2nn(-c3ncccn3)c(=O)[nH]2)cc2c1OCOC2 (racemic) [Example 21, (R) and (S)-4-{[(8-methoxy-4H-benzo[1,3]dioxin-6-yl)-(5-oxo-1-pyrimidin-2-yl-4,5-dihydro-1H-[1,2,4]triazol-3-yl)methyl]amino}benzamidine acetate] | 10.6 |

Compounds with a lower IC50, results first:

| IC50 [nM] | Structure (SMILES) |
| --- | --- |
| 8.3 | COCc1cc(C(Nc2ccc(C(=N)N)cc2)c2nn(-c3ncccn3)c(=O)[nH]2)cc(OC)c1OC (racemic) [Example 22, (R) and (S)-4-{[(3,4-dimethoxy-5-methoxymethyl-phenyl)-(5-oxo-1-pyrimidin-2-yl-4,5-dihydro-1H-[1,2,4]triazol-3-yl)methyl]amino}benzamidine acetate] |
| 7.5 | COc1cc(F)c(C(Nc2ccc(C(=N)N)cc2)c2nn(-c3ccccc3C(=O)O)c(=O)[nH]2)cc1OC (racemic) [Example 1, (R) and (S)-2-{3-[(4-carbamimidoylphenylamino)-(2-fluoro-4,5-dimethoxyphenyl)methyl]-5-oxo-4,5-dihydro-[1,2,4]triazol-1-yl}benzoic acid acetate] |
| 7.5 | CCOc1cc(C(Nc2ccc(C(=N)N)cc2)c2nn(-c3ncccn3)c(=O)[nH]2)ccc1OC (racemic) [Example 17, (R) and (S)-4-{[(3-ethoxy-4-methoxyphenyl)-(5-oxo-1-pyrimidin-2-yl-4,5-dihydro-1H-[1,2,4]triazol-3-yl)methyl]amino}benzamidine acetate] |
| 7.4 | COc1cc(C(Nc2ccc(C(=N)N)cc2)c2nn(-c3ncccn3)c(=O)[nH]2)cc2c1OCCC2 (racemic) [Example 24, (R) and (S)-4-{[(8-methoxychroman-6-yl)-(5-oxo-1-pyrimidin-2-yl-4,5-dihydro-1H-[1,2,4]triazol-3-yl)methyl]amino}benzamidine acetate] |
| 5.4 | COc1cc(C(Nc2ccc(C(=N)N)cc2)c2nn(-c3ncccn3)c(=O)[nH]2)cc(CC#N)c1OC (racemic) [Example 26, (R) and (S)-4-{[(3-cyanomethyl-4,5-dimethoxyphenyl)-(5-oxo-1-pyrimidin-2-yl-4,5-dihydro-1H-[1,2,4]triazol-3-yl)methyl]amino}benzamidine acetate] |
| 4.9 | COc1cc(O[C@@H]2CCOC2)cc(C(Nc2ccc(C(=N)N)cc2)c2nn(-c3ncccn3)c(=O)[nH]2)c1 (mixture of isomers) [Example 5, 4-[((R) and (S)-{3-methoxy-5-[(R)-(tetrahydrofuran-3-yl)oxy]phenyl}-(5-oxo-1-pyrimidin-2-yl-4,5-dihydro-1H-[1,2,4]triazol-3-yl)methyl)amino]benzamidine acetate] |
| 4.8 | COc1cc(OCCF)c(F)c(C(Nc2ccc(C(=N)N)cc2)c2nn(-c3ncccn3)c(=O)[nH]2)c1 (racemic) [Example 3, (R) and (S)-4-({[2-fluoro-3-(2-fluoroethoxy)-5-methoxyphenyl]-(5-oxo-1-pyrimidin-2-yl-4,5-dihydro-1H-[1,2,4]triazol-3-yl)methyl}amino)benzamidine acetate] |
| 3.1 | CCc1cc(C(Nc2ccc(C(=N)N)cc2)c2nn(-c3ncccn3)c(=O)[nH]2)cc2c1OCOC2 (racemic) [Example 27, (R) and (S)-4-{[(8-ethyl-4H-benzo[1,3]dioxin-6-yl)-(5-oxo-1-pyrimidin-2-yl-4,5-dihydro-1H-[1,2,4]triazol-3-yl)methyl]amino}benzamidine acetate] |
| 3 | COc1cc(O[C@H]2CCOC2)cc(C(Nc2ccc(C(=N)N)cc2)c2nn(-c3ncccn3)c(=O)[nH]2)c1 (mixture of isomers) [Example 4, 4-{[(R) and (S)-{3-methoxy-5-[(S)-(tetrahydrofuran-3-yl)oxy]phenyl}-(5-oxo-1-pyrimidin-2-yl-4,5-dihydro-1H-[1,2,4]triazol-3-yl)methyl]amino}benzamidine acetate] |
